For 29 molecules, IC50 results are on record in US9475784B2, “4,6-diarylaminothiazines as BACE1 inhibitors and their use for the reduction of beta-amyloid production” (BRISTOL-MYERS SQUIBB COMPANY, priority 2012, dated 2016).

Molecules are shown by their SMILES. pIC50: −log10 of the molar value. Structures can show the parent of a compound that is named as a salt.

For this test, the system named is Aβ42 production in H4 cells stably transfected with APP751 containing the Swedish mutation (H4 APP751 SWE clone 8.20). In words: Cellular assay for inhibition of Aβ1-42 production (H4 APP751 SWE clone 8.20). The format is cell-based. The following applies: H4 APP751 SWE clone 8.20 cells, 19 h incubation. How it is done:
Cellular Assays for Inhibition of Aβ1-40 and Aβ1-42 Production
H4 cells stably transfected with APP751 containing the Swedish mutation (H4 APP751 SWE clone 8.20, developed at BMS) were maintained in log phase through twice weekly passage at a 1:20 split. […] Following incubation for 19 h in 5% CO2 at 37° C., plates were briefly centrifuged (1000 rpm, 5 min). A 10 μl aliquot from each well was transferred to a second assay plate (Costar 3709) for Aβ40 measurements. Antibody cocktails were freshly prepared by dilution into 40 mM Tris-HCl (pH 7.4) with 0.2% BSA and added to assay plates. For Aβ42 measurements, antibodies specific for the Aβ42 neoepitope (565, developed at BMS; conjugated to the Wallac reagent (Perkin Elmer)) and the N-terminal sequence of Aβ peptide (26D6, developed at SIBIA; conjugated to APC (Perkin Elmer)) were mixed and 20 μl of the mixture was added to each well of the incubated cell plate yielding a final concentration of 0.8 ng/well 565 and 75 ng/well 26D6. For the Aβ40 measurements, antibodies specific for the Aβ40 neoepitope (TSD, developed at BMS; conjugated to the Wallac reagent (Perkin Elmer)) and 26D6 as described above were mixed and 20 μl of the mixture was added to the 10 μl aliquots which had been removed previously from the cell plate yielding a final concentration of 1.6 ng/well TSD and 17.5 ng/well 26D6. Assay plates containing antibodies were sealed with aluminum foil and incubated overnight at 4° C. Signal was determined using a Viewlux counter (Perkin Elmer) and IC50 values determined using curve fitting in CurveMaster (Excel Fit based).

Setting [1] is: Table 5B, 6-heterocyclic thiazine examples.
Setting [2] is: Table 5A, 6-alkyl and 6-substituted phenyl thiazine examples.

For orientation: pIC50 means the IC50 on a negative log10 scale, so that one unit is a factor of ten. With `Cc1noc(C)c1[C@@H]1C[C@@](C)(c2ccc(F)cc2F)N=C(N)S1` [Example 45, (4S,6S)-4-(2,4-difluorophenyl)-6-(3,5-dimethylisoxazol-4-yl)-4-methyl-5,6-dihydro-4H-1,3-thiazin-2-amine], under setting [1], the pIC50 is 6.82.

For the molecule `Cc1noc(C)c1[C@@H]1C[C@@H](c2cc(NC(=O)c3ccc(Br)cn3)ccc2F)N=C(N)S1` (racemic) [Example 37, N-(3-((±)-2-amino-6-(3,5-dimethylisoxazol-4-yl)-5,6-dihydro-4H-1,3-thiazin-4-yl)-4-fluorophenyl)-5-bromopicolinamide], the negative logarithm of the IC50 (pIC50) under setting [1] is 7.66.

In turn, `COc1ccc([C@@H]2C[C@@H](c3cc(-c4cncnc4)c(F)cc3F)N=C(N)S2)cc1OC` (racemic) [Example 1, (±)-4-(2,4-difluoro-5-(pyrimidin-5-yl)phenyl)-6-(3,4-dimethoxyphenyl)-5,6-dihydro-4H-1,3-thiazin-2-amine] showed a pIC50 under setting [2] of 5.96.

`Cc1nn(C)c(C)c1[C@@H]1C[C@@H](c2cccc(-c3cncnc3)c2)N=C(N)S1` (racemic) [Example 28, (±)-4-(3-(pyrimidin-5-yl)phenyl)-6-(1,3,5-trimethyl-1H-pyrazol-4-yl)-5,6-dihydro-4H-1,3-thiazin-2-amine•TFA]: the pIC50 under setting [1] is below 4.52.

Take `Cc1noc(C)c1[C@@H]1C[C@@H](c2cc(-c3cncnc3)c(F)cc2F)N=C(N)S1` (single isomer, unassigned) [Example 29A]: the pIC50 under setting [1] is 7.22.

Take `Cc1noc(C)c1[C@@H]1C[C@@H](c2cc(NC(=O)c3ccc(Cl)cn3)ccc2F)N=C(N)S1` (single isomer, unassigned) [Example 38A]: under setting [1], the pIC50 is 8.30.

The molecule `NC1=N[C@H](c2cccc(-c3cncnc3)c2)C[C@@H](Cc2ccccc2)S1` (racemic) [Example 4, (±)-6-benzyl-4-(3-(pyrimidin-5-yl)phenyl)-5,6-dihydro-4H-1,3-thiazin-2-amine] gave a pIC50 under setting [2] of 5.13.

In the case of `Cc1noc(C)c1[C@@H]1C[C@@](C)(c2cc(-c3cccnc3C#N)c(F)cc2F)N=C(N)S1` [Example 55, 3-(5-((4S,6S)-2-amino-6-(3,5-dimethylisoxazol-4-yl)-4-methyl-5,6-dihydro-4H-1,3-thiazin-4-yl)-2,4-difluorophenyl)picolinonitrile], the pIC50 under setting [1] was 7.06.

For `NC1=N[C@H](c2cccc(-c3cncnc3)c2)C[C@@H](C2CCCCC2)S1` (racemic) [Example 5, (±)-6-cyclohexyl-4-(3-(pyrimidin-5-yl)phenyl)-5,6-dihydro-4H-1,3-thiazin-2-amine], the pIC50 under setting [2] was 5.42.

Consider `Cn1nccc1[C@@H]1C[C@@](C)(c2ccc(F)cc2F)N=C(N)S1` [Example 60, (4S,6S)-4-(2,4-difluorophenyl)-4-methyl-6-(1-methyl-1H-pyrazol-5-yl)-5,6-dihydro-4H-1,3-thiazin-2-amine], for which, under setting [1], the pIC50 is 6.48.

Consider `COc1ccc([C@@H]2C[C@@H](c3cccc(-c4cncnc4)c3)N=C(N)S2)cc1` (racemic) [Example 13, (±)-6-(4-methoxyphenyl)-4-(3-(pyrimidin-5-yl)phenyl)-5,6-dihydro-4H-1,3-thiazin-2-amine], for which the pIC50 under setting [2] was 5.43.

Turning to `COc1ccc([C@]23CCCCC2[C@@H](c2cccc(-c4cncnc4)c2)N=C(N)S3)cc1` (mixture of isomers) [Example 17, (±)-8a-(4-methoxyphenyl)-4-(3-(pyrimidin-5-yl)phenyl)-4a,5,6,7,8,8a-hexahydro-4H-benzo[e][1,3]thiazin-2-amine•TFA], under setting [2], the pIC50 was 5.48.

`C=CCC[C@@H]1C[C@@H](c2cccc(-c3cncnc3)c2)N=C(N)S1` (racemic) [Example 6, (±)-6-(but-3-enyl)-4-(3-(pyrimidin-5-yl)phenyl)-5,6-dihydro-4H-1,3-thiazin-2-amine] gave a pIC50 under setting [2] of 4.85. This pIC50 is 0.63 log units lower than that of the molecule before.

In the case of `Cc1noc(C)c1[C@@H]1C[C@@](C)(c2cc(-c3cnc(S(C)(=O)=O)nc3)c(F)cc2F)N=C(N)S1` [Example 52, (4S,6S)-4-(2,4-difluoro-5-(2-(methylsulfonyl)pyrimidin-5-yl)phenyl)-6-(3,5-dimethylisoxazol-4-yl)-4-methyl-5,6-dihydro-4H-1,3-thiazin-2-amine], the pIC50 under setting [1] was 6.09.

For `COc1ncc(-c2cc([C@]3(C)C[C@@H](c4c(C)noc4C)SC(N)=N3)c(F)cc2F)cn1` [Example 58, (4S,6S)-4-(2,4-difluoro-5-(2-methoxypyrimidin-5-yl)phenyl)-6-(3,5-dimethylisoxazol-4-yl)-4-methyl-5,6-dihydro-4H-1,3-thiazin-2-amine], the pIC50 under setting [1] was 6.92.

Regarding `COc1cccc([C@@H]2C[C@@H](c3cccc(-c4cncnc4)c3)N=C(N)S2)c1` (racemic) [Example 15, (±)-6-(3-methoxyphenyl)-4-(3-(pyrimidin-5-yl)phenyl)-5,6-dihydro-4H-1,3-thiazin-2-amine•TFA], under setting [2], the pIC50 was 5.55.

Take `Cc1noc(C)c1[C@@H]1C[C@@](C)(c2cc(-c3cnccc3C(F)(F)F)c(F)cc2F)N=C(N)S1` [Example 59, (4S,6S)-4-(2,4-difluoro-5-(4-(trifluoromethyl)pyridin-3-yl)phenyl)-6-(3,5-dimethylisoxazol-4-yl)-4-methyl-5,6-dihydro-4H-1,3-thiazin-2-amine]: under setting [1], the pIC50 is 6.17.

`Cc1oncc1[C@]1(C)C[C@@H](c2cc(-c3cncnc3)c(F)cc2F)N=C(N)S1` (racemic) [Example 33, (±)-4-(2,4-difluoro-5-(pyrimidin-5-yl)phenyl)-6-methyl-6-(5-methylisoxazol-4-yl)-5,6-dihydro-4H-1,3-thiazin-2-amine] gave a pIC50 under setting [1] of 6.74.

Regarding `CC#Cc1cncc(-c2cc([C@@H]3C[C@@H](c4ccc(OC)c(OC)c4)SC(N)=N3)c(F)cc2F)c1` (racemic) [Example 32, (±)-4-(2,4-difluoro-5-(5-(prop-1-ynyl)pyridin-3-yl)phenyl)-6-(3,4-dimethoxyphenyl)-5,6-dihydro-4H-1,3-thiazin-2-amine], under setting [2], the pIC50 was 6.00.

`COc1ccc([C@@H]2C[C@@H](c3cccc(-c4cncnc4)c3)N=C(N)S2)cn1` [Example 10, (4S,6S)-6-(6-methoxypyridin-3-yl)-4-(3-(pyrimidin-5-yl)phenyl)-5,6-dihydro-4H-1,3-thiazin-2-amine•TFA] showed a pIC50 under setting [1] of 5.68.

Regarding `COc1ccc([C@@H]2C[C@@H](c3cc(-c4cncnc4)ccc3F)N=C(N)S2)cc1OC` (racemic) [Example 8, (±)-6-(3,4-dimethoxyphenyl)-4-(2-fluoro-5-(pyrimidin-5-yl)phenyl)-5,6-dihydro-4H-1,3-thiazin-2-amine], the pIC50 under setting [2] was 5.72.

Take `COc1ccc([C@@H]2C[C@@H](c3cccc(-c4cccc(C#N)c4)c3)N=C(N)S2)cc1OC` (racemic) [Example 31, 3′-((±)-2-amino-6-(3,4-dimethoxyphenyl)-5,6-dihydro-4H-1,3-thiazin-4-yl)biphenyl-3-carbonitrile]: the pIC50 under setting [2] is 5.05.

`CC#Cc1cncc(-c2cc(Cl)c([C@]3(C)C[C@@H](c4c(C)noc4C)SC(N)=N3)s2)c1` [Example 44, (4S,6S)-4-(3-chloro-5-(5-(prop-1-ynyl)pyridin-3-yl)thiophen-2-yl)-6-(3,5-dimethylisoxazol-4-yl)-4-methyl-5,6-dihydro-4H-1,3-thiazin-2-amine]: the pIC50 under setting [1] was 7.52.

`Cc1c([C@@H]2C[C@@H](c3cccc(-c4cncnc4)c3)N=C(N)S2)cnn1C` (racemic) [Example 25, (±)-6-(1,5-dimethyl-1H-pyrazol-4-yl)-4-(3-(pyrimidin-5-yl)phenyl)-5,6-dihydro-4H-1,3-thiazin-2-amine•TFA] showed a negative logarithm of the IC50 (pIC50) under setting [1] of 5.47.

`Cc1nc(C)c([C@@H]2C[C@@](C)(c3cc(-c4cncnc4)c(F)cc3F)N=C(N)S2)o1` [Example 42, (4S,6S)-4-(2,4-difluoro-5-(pyrimidin-5-yl)phenyl)-6-(2,4-dimethyloxazol-5-yl)-4-methyl-5,6-dihydro-4H-1,3-thiazin-2-amine] showed a pIC50 under setting [1] of 6.97.

For the molecule `Cc1noc(C)c1[C@@H]1C[C@@](C)(c2cc(F)c(F)c(F)c2)N=C(N)S1` [Example 50, (4S,6S)-6-(3,5-dimethylisoxazol-4-yl)-4-methyl-4-(3,4,5-trifluorophenyl)-5,6-dihydro-4H-1,3-thiazin-2-amine], under setting [1], the pIC50 was 6.08. Against the preceding molecule, the pIC50 is 0.89 log units lower.

On to `N#Cc1ccc([C@@H]2C[C@@H](c3cccc(-c4cncnc4)c3)N=C(N)S2)cc1` (racemic) [Example 12, 4-((±)-2-amino-4-(3-(pyrimidin-5-yl)phenyl)-5,6-dihydro-4H-1,3-thiazin-6-yl)benzonitrile], for which the pIC50 under setting [2] was 5.74.

On to `Cc1nn(C)cc1[C@@H]1C[C@@H](c2cccc(-c3cncnc3)c2)N=C(N)S1` (racemic) [Example 26, (±)-6-(1,3-dimethyl-1H-pyrazol-4-yl)-4-(3-(pyrimidin-5-yl)phenyl)-5,6-dihydro-4H-1,3-thiazin-2-amine•TFA], for which, under setting [1], the pIC50 was 5.60.

Consider `Cc1nc([C@@H]2C[C@@](C)(c3cc(-c4cncnc4)c(F)cc3F)N=C(N)S2)c(C)o1` [Example 41, (4S,6S)-4-(2,4-difluoro-5-(pyrimidin-5-yl)phenyl)-6-(2,5-dimethyloxazol-4-yl)-4-methyl-5,6-dihydro-4H-1,3-thiazin-2-amine], for which, under setting [1], the pIC50 was 6.63. This pIC50 lies 1.03 log units higher than the previous one.
